What all share (format): biochemical
For assay [1], the target named is human JAK2 catalytic kinase (JH1) domain (Homo sapiens (Human), UniProt O60674). Kind of assay: ADP-Glo Kinase Assay, recombinant JAK2 catalytic kinase (JH1) domain. The settings on record: recombinant JH1 domain 0.2 nM, 15 μM ATP, JAK3-974 peptide, mean, read-out: JAK2 biochem IC50 (nM) Mean. An outline of the steps: (§1)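 Reactions ran 100 min with 50 μM substrate peptide (JAK3-342 for JAK1 at 4 nM enzyme; JAK3-974 for JAK2 0.2 nM, JAK3 0.3 nM, TYK2 2 nM), and ADP formed was read by ADP-Glo luminescence. Eleven-point 3-fold series from 10 or 1 μM; IC50 fitted by 4-parameter logistic model.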
Sequence of human JAK2 catalytic kinase (JH1) domain (O60674 849-1124): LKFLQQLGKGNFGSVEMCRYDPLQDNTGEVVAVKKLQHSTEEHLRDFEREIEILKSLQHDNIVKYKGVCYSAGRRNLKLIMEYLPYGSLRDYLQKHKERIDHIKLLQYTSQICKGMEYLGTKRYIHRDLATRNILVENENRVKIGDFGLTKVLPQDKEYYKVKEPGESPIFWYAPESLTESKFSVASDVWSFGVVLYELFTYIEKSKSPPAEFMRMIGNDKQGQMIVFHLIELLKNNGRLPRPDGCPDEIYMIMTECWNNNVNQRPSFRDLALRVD

In assay [2] the target is human TYK2 catalytic kinase (JH1) domain (Homo sapiens (Human), UniProt P29597). The assay can be described thus: ADP-Glo Kinase Assay, recombinant TYK2 catalytic kinase (JH1) domain. The settings on record: recombinant JH1 domain 2 nM, 10 μM ATP, JAK3-974 peptide, mean, read-out: TYK2 biochem IC50 (nM) Mean. In a few lines: as §1
Sequence of human TYK2 catalytic kinase (JH1) domain (P29597 897-1176): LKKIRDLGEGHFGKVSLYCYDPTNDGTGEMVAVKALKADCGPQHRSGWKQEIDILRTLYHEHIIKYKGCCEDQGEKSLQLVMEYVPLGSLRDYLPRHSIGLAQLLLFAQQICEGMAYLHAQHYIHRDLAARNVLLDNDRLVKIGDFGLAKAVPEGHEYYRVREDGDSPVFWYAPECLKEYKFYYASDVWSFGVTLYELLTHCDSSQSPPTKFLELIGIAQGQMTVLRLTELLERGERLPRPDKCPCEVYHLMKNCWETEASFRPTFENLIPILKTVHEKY
Assay [3] addresses human JAK1 catalytic kinase (JH1) domain (Homo sapiens (Human), UniProt P23458). The assay can be described thus: ADP-Glo Kinase Assay, recombinant JAK1 catalytic kinase (JH1) domain. The settings on record: recombinant JH1 domain 4 nM, 35 μM ATP, JAK3-342 peptide, mean, read-out: JAK1 biochem IC50 (nM) Mean. In a few lines:
as §1

The target of assay [4] is human JAK3 catalytic kinase (JH1) domain (Homo sapiens (Human), UniProt P52333). The assay can be described thus: ADP-Glo Kinase Assay, recombinant JAK3 catalytic kinase (JH1) domain. The settings on record: recombinant JH1 domain 0.3 nM, 4 μM ATP, JAK3-974 peptide, mean, read-out: JAK3 biochem IC50 (nM) Mean. In a few lines:
as §1

Each structure is given as a SMILES string.

Sequence of human JAK1 catalytic kinase (JH1) domain (P23458 875-1153): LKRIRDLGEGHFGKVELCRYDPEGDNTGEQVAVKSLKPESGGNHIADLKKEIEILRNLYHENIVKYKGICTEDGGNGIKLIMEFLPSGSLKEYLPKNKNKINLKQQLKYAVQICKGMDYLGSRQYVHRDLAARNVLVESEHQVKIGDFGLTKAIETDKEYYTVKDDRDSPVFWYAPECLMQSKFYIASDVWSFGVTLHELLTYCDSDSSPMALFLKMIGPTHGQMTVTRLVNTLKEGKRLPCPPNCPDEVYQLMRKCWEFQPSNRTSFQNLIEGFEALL
Sequence of human JAK3 catalytic kinase (JH1) domain (P52333 822-1111): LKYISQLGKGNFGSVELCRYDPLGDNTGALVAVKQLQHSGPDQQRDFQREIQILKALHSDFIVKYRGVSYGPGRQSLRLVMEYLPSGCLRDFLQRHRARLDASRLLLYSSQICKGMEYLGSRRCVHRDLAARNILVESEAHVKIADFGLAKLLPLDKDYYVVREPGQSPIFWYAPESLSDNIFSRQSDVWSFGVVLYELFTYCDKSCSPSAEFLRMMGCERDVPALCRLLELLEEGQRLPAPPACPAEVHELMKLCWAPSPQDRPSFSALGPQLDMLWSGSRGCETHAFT

`COc1cc(-c2nc3c(N4CC5CCC(C4)N5C(=O)[C@@H]4C[C@H]4F)ccnc3[nH]2)ccn1` [Example 203, ((1S,2R)-2-fluorocyclopropyl)(3-(2-(2-methoxypyridin-4-yl)-3H-imidazo[4,5-b]pyridin-7-yl)-3,8-diazabicyclo[3.2.1]octan-8-yl)methanone]: the 50% inhibitory concentration (IC50) worked out at 42 nM in assay [1], 7 nM in assay [2], 19 nM in assay [3] and 578 nM in assay [4].
`N#Cc1cc(-c2nc3c(N4CC5CCC(C4)N5C(=O)[C@@H]4C[C@H]4F)ccnc3[nH]2)ccn1` [Example 204, 4-(7-(8-((1S,2R)-2-fluorocyclopropane-1-carbonyl)-3,8-diazabicyclo[3.2.1]octan-3-yl)-3H-imidazo[4,5-b]pyridin-2-yl)picolinonitrile]: the IC50 worked out at 49 nM in assay [1], 12 nM in assay [2], 36 nM in assay [3] and 716 nM in assay [4].
Regarding `Cc1ccc(-c2nc3c(N4CC5CCC(C4)N5C(=O)[C@@H]4C[C@H]4F)ccnc3[nH]2)cn1` [Example 205, ((1S,2R)-2-fluorocyclopropyl)(3-(2-(6-methylpyridin-3-yl)-3H-imidazo[4,5-b]pyridin-7-yl)-3,8-diazabicyclo[3.2.1]octan-8-yl)methanone], the IC50 in assay [1] was found to be 22 nM; in assay [2] it was 4.6 nM; in assay [3], 25 nM; in assay [4], 246 nM.
Regarding `O=C([C@@H]1C[C@H]1F)N1C2CCC1CN(c1ccnc3[nH]c(-c4ccc(C(F)F)nc4)nc13)C2` [Example 206], the IC50 in assay [1] turned out to be 35 nM; in assay [2], 6.8 nM; in assay [3], 24 nM; in assay [4], 744 nM.
With `O=C([C@@H]1C[C@H]1F)N1C2CCC1CN(c1ccnc3[nH]c(-c4ccnnc4)nc13)C2` [Example 207, ((1S,2R)-2-fluorocyclopropyl)(3-(2-(pyridazin-4-yl)-3H-imidazo[4,5-b]pyridin-7-yl)-3,8-diazabicyclo[3.2.1]octan-8-yl)methanone], the half-maximal inhibitory concentration (IC50) amounted to 150 nM in assay [1], 39.6 nM in assay [2], 126 nM in assay [3] and 2680 nM in assay [4].
The corresponding values for `O=C([C@@H]1C[C@H]1F)N1C2CCC1CN(c1ccnc3[nH]c(C4CC4)nc13)C2` [Example 208, (3-(2-cyclopropyl-3H-imidazo[4,5-b]pyridin-7-yl)-3,8-diazabicyclo[3.2.1]octan-8-yl)((1S,2R)-2-fluorocyclopropyl)methanone] are 772 nM, 85.4 nM, 716 nM and 6420 nM.
With `O=C([C@@H]1C[C@H]1F)N1C2CCC1CN(c1ccnc3[nH]c(C4CCC4)nc13)C2` [Example 209, (3-(2-cyclobutyl-3H-imidazo[4,5-b]pyridin-7-yl)-3,8-diazabicyclo[3.2.1]octan-8-yl)((1S,2R)-2-fluorocyclopropyl)methanone], the half-maximal inhibitory concentration (IC50) in assay [1] was found to be 8500 nM; in assay [2], 358 nM; in assay [3], 1710 nM; in assay [4] it was 8590 nM.
As for `O=C([C@@H]1C[C@H]1F)N1C2CCC1CN(c1ccnc3[nH]c(C4(F)CC4)nc13)C2` [Example 210, ((1S,2R)-2-fluorocyclopropyl)(3-(2-(1-fluorocyclopropyl)-3H-imidazo[4,5-b]pyridin-7-yl)-3,8-diazabicyclo[3.2.1]octan-8-yl)methanone], the half-inhibitory concentration (IC50) stood at 2600 nM in assay [1], 398 nM in assay [2], 798 nM in assay [3] and 5520 nM in assay [4].
For the compound `O=C([C@@H]1C[C@H]1F)N1C2CCC1CN(c1ccnc3[nH]c(C4CCOC4)nc13)C2` (stereo partly drawn) [Example 211, ((1S,2R)-2-fluorocyclopropyl)(3-(2-(tetrahydrofuran-3-yl)-3H-imidazo[4,5-b]pyridin-7-yl)-3,8-diazabicyclo[3.2.1]octan-8-yl)methanone], the IC50 amounted to 10000 nM in assay [1], 676 nM in assay [2], 5780 nM in assay [3] and 10000 nM in assay [4].
For the compound `O=C([C@@H]1C[C@H]1F)N1C2CCC1CN(c1ccnc3[nH]c(N4CCOCC4)nc13)C2` [Example 212, ((1S,2R)-2-fluorocyclopropyl)(3-(2-morpholino-3H-imidazo[4,5-b]pyridin-7-yl)-3,8-diazabicyclo[3.2.1]octan-8-yl)methanone], the IC50 in assay [1] is 650 nM; in assay [2], 30.5 nM; in assay [3], 322 nM; in assay [4], 4220 nM.
In the case of `Cn1cc(-c2nc3c(N4CC5CCC(C4)N5C(=O)[C@@H]4C[C@H]4F)c(F)cnc3[nH]2)c(F)n1` [Example 213, (3-(6-fluoro-2-(3-fluoro-1-methyl-1H-pyrazol-4-yl)-3H-imidazo[4,5-b]pyridin-7-yl)-3,8-diazabicyclo[3.2.1]octan-8-yl)((1S,2R)-2-fluorocyclopropyl)methanone], the half-inhibitory concentration (IC50) in assay [1] stood at 25 nM; in assay [2], 2.5 nM; in assay [3] it was 37 nM; in assay [4], 87 nM.
With `O=C(C1CC1)N1C2CCC1CN(c1ccnc3[nH]c(-c4cnn(C(F)F)c4)nc13)C2` [Example 214, cyclopropyl(3-(2-(1-(difluoromethyl)-1H-pyrazol-4-yl)-3H-imidazo[4,5-b]pyridin-7-yl)-3,8-diazabicyclo[3.2.1]octan-8-yl)methanone], the half-inhibitory concentration (IC50) in assay [1] came to 62 nM; in assay [2], 7.6 nM; in assay [3] it was 94 nM; in assay [4] it was 346 nM.
In the case of `N#CC1CC1c1nc2c(N3CC4CCC(C3)N4C(=O)[C@@H]3C[C@H]3F)ccnc2[nH]1` (stereo partly drawn) [Example 215, 2-(7-(8-((1S,2R)-2-fluorocyclopropane-1-carbonyl)-3,8-diazabicyclo[3.2.1]octan-3-yl)-3H-imidazo[4,5-b]pyridin-2-yl)cyclopropane-1-carbonitrile], the IC50 in assay [1] amounted to 5350 nM; in assay [2], 484 nM; in assay [3], 2180 nM; in assay [4], 10000 nM.
For the compound `Cn1cc(-c2nc3c(N4CC5CCC(C4)N5C(=O)[C@@H]4C[C@H]4F)ccnc3[nH]2)c(F)n1` [Example 216, (3-(2-(3-fluoro-1-methyl-1H-pyrazol-4-yl)-3H-imidazo[4,5-b]pyridin-7-yl)-3,8-diazabicyclo[3.2.1]octan-8-yl)((1S,2R)-2-fluorocyclopropyl)methanone], the half-inhibitory concentration (IC50) in assay [1] was 14 nM; in assay [2], 1.9 nM; in assay [3] it was 41 nM; in assay [4], 235 nM.
For `CNc1cc(-c2nc3c(N4CC5CCC(C4)N5C(=O)[C@@H]4C[C@H]4F)ccnc3[nH]2)ccn1` [Example 217, ((1S,2R)-2-fluorocyclopropyl)(3-(2-(2-(methylamino)pyridin-4-yl)-3H-imidazo[4,5-b]pyridin-7-yl)-3,8-diazabicyclo[3.2.1]octan-8-yl)methanone], the 50% inhibitory concentration (IC50) in assay [1] was found to be 8 nM; in assay [2], 0.4 nM; in assay [3], 3 nM; in assay [4], 107 nM.
Turning to `CN1CCOC(c2nc3c(N4CC5CCC(C4)N5C(=O)[C@@H]4C[C@H]4F)ccnc3[nH]2)C1` (stereo partly drawn) [Example 218, ((1S,2R)-2-fluorocyclopropyl)(3-(2-(4-methylmorpholin-2-yl)-3H-imidazo[4,5-b]pyridin-7-yl)-3,8-diazabicyclo[3.2.1]octan-8-yl)methanone], the IC50 was determined as 10000 nM in assay [1], 783 nM in assay [2], 2940 nM in assay [3] and 10000 nM in assay [4].
As for `O=C(C1CC1)N1C2CCC1CN(c1ncnc3[nH]c(-c4cnn(C(F)F)c4)cc13)C2` [Example 219, cyclopropyl(3-(6-(1-(difluoromethyl)-1H-pyrazol-4-yl)-7H-pyrrolo[2,3-d]pyrimidin-4-yl)-3,8-diazabicyclo[3.2.1]octan-8-yl)methanone], the IC50 in assay [1] is 752 nM; in assay [2], 23.6 nM; in assay [3] it was 232 nM; in assay [4], 698 nM.
`Cn1cc(-c2cc3c(N4CC5CCC(C4)N5C(=O)C4CC4)ncnc3[nH]2)cn1` [Example 220, cyclopropyl(3-(6-(1-methyl-1H-pyrazol-4-yl)-7H-pyrrolo[2,3-d]pyrimidin-4-yl)-3,8-diazabicyclo[3.2.1]octan-8-yl)methanone]: the IC50 in assay [1] is 690 nM; in assay [2] it was 34 nM; in assay [3], 242 nM; in assay [4], 501 nM.
In the case of `O=C([C@@H]1C[C@H]1F)N1C2CCC1CN(c1ncnc3[nH]c(-c4cnn(C(F)F)c4)cc13)C2` [Example 221, (3-(6-(1-(difluoromethyl)-1H-pyrazol-4-yl)-7H-pyrrolo[2,3-d]pyrimidin-4-yl)-3,8-diazabicyclo[3.2.1]octan-8-yl)((1S,2R)-2-fluorocyclopropyl)methanone], the 50% inhibitory concentration (IC50) in assay [1] was 73 nM; in assay [2], 2.8 nM; in assay [3] it was 82 nM; in assay [4], 461 nM.
The corresponding values for `O=C([C@@H]1CC1(F)F)N1C2CCC1CN(c1ncnc3[nH]c(-c4cnn(C(F)F)c4)cc13)C2` [Example 222, ((S)-2,2-difluorocyclopropyl)(3-(6-(1-(difluoromethyl)-1H-pyrazol-4-yl)-7H-pyrrolo[2,3-d]pyrimidin-4-yl)-3,8-diazabicyclo[3.2.1]octan-8-yl)methanone] are 128 nM, 5.7 nM, 132 nM and 999 nM.

(Values after patent US20240360157A1, “TYK2 INHIBITORS” (BIOGEN MA INC., priority 2021, published 2024).)
